The text below walks through data of ChEMBL document CHEMBL5154744, “Stereo-Defined Acyclic Nucleoside Phosphonates are Selective and Potent Inhibitors of Parasite 6-Oxopurine Phosphoribosyltransferases” (J Med Chem, 2022).

One data set deals with NHDF. The data set can be described thus: Cytotoxicity against human NHDF cells assessed as cell viability at 10 uM. Format: toxicity, cell-based.
In data set [1] the target is T1, Hypoxanthine-guanine phosphoribosyltransferase (Homo sapiens, UniProt P00492).
T1 sequence (P00492 whole entry): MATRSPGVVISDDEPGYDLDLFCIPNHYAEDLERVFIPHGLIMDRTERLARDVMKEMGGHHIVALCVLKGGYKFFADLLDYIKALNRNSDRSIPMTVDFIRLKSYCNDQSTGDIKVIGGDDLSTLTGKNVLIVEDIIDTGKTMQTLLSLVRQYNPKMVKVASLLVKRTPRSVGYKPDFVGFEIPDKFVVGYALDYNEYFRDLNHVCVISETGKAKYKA
The experiment in a line: Inhibition of human HGPRT using PRib-PP as substrate by spectrophotometric assay.

A short description of data set [2]: Inhibition of Plasmodium falciparum HGXPRT using PRib-PP as substrate by spectrophotometric assay.
A short description of data set [3]: Inhibition of His-tagged Trypanosoma brucei HGPRT1 expressed in Escherichia coli BL21 (DE3) cells using PRib-PP as substrate by spectrophotometric assay.
The nature of data set [4]: Inhibition of His-tagged Trypanosoma brucei HGXPRT expressed in Escherichia coli BL21 (DE3) cells using PRib-PP as substrate by spectrophotometric assay.
Data set [5] can be described thus: Inhibition of Plasmodium vivax HGPRT using PRib-PP as substrate by spectrophotometric assay.
Another data set has as its system HeLa. The experiment in a line: Cytotoxicity against human HeLa cells assessed as cell viability at 10 uM. The class given is toxicity, cell-based.

As usually defined, the Ki is the dissociation constant of the complex between target and ligand, obtained from inhibition or displacement. A high value points to lower affinity. In the case of `Nc1nc2c(ncn2C[C@H](COCP(=O)([O-])[O-])OCC(O)CO)c(=O)[nH]1.[Na+].[Na+]` (stereo not given in full), the Activity entry in the data set on NHDF and in the data set on HeLa was “Non-Toxic” throughout. Moreover, the Ki in data set [1] was 4000 nM; in data set [2], 1000 nM; in data set [3] it was 500 nM; in data set [4], 2000 nM; in data set [5], 5000 nM.

With `Nc1nc2c(ncn2C[C@@H](COCP(=O)([O-])[O-])OC[C@H](O)P(=O)([O-])[O-])c(=O)[nH]1.[Na+].[Na+].[Na+].[Na+]`, the Activity entry in the data set on NHDF and in the data set on HeLa was “Non-Toxic” in each case. Also, the Ki in data set [1] worked out at 100 nM; in data set [2], 50 nM; in data set [3] it was 2 nM; in data set [4] it was 30 nM; in data set [5], 20 nM.

On to `O=c1[nH]cnc2c1ncn2C[C@@H](COCP(=O)([O-])[O-])OCC(O)CO.[Na+].[Na+]` (stereo not given in full), for which the Activity result in the data set with NHDF and with HeLa was “Non-Toxic” throughout. Further, the Ki in data set [2] amounted to 2400 nM; in data set [3], 1000 nM; in data set [4], 14000 nM; in data set [5] it was 13000 nM.

For `O=C(CCP(=O)(O)O)N1CC(OCCP(=O)(O)O)[C@H](n2cnc3c(=O)[nH]cnc32)C1` (stereo not given in full), the Ki in data set [1] came out at 20 nM; in data set [2], 14 nM; in data set [5] it was 80 nM.

In the case of `O=c1[nH]cnc2c1ncn2C[C@@H](COCP(=O)([O-])[O-])OCC(O)P(=O)([O-])[O-].[Na+].[Na+].[Na+].[Na+]` (stereo not given in full), the Activity result in the data set on NHDF and with HeLa was “Non-Toxic” in each case. Besides, the Ki in data set [1] was determined as 4000 nM; in data set [2] it was 400 nM; in data set [3], 30 nM; in data set [4], 30 nM; in data set [5], 200 nM.

Consider `Nc1nc2c(ncn2C[C@H](COCP(=O)([O-])[O-])OCCCP(=O)([O-])[O-])c(=O)[nH]1.[Na+].[Na+].[Na+].[Na+]`, for which the Activity result with NHDF and in the data set on HeLa was “Non-Toxic” in each case. For the same molecule, the inhibition constant Ki turned out to be 400 nM in data set [1]; 800 nM in data set [2]; 40 nM in data set [3]; 60 nM in data set [4]; 700 nM in data set [5].

For the molecule `Nc1nc2c(ncn2C[C@@H](COCP(=O)([O-])[O-])OCCCP(=O)([O-])[O-])c(=O)[nH]1.[Na+].[Na+].[Na+].[Na+]`, the Activity entry in the data set on NHDF and in the data set on HeLa was “Non-Toxic” in each case. Further, the Ki amounted to 500 nM in data set [1]; 200 nM in data set [2]; 10 nM in data set [3]; 250 nM in data set [4]; 400 nM in data set [5].

Turning to `O=c1[nH]cnc2c1ncn2C[C@@H](COCP(=O)([O-])[O-])OCCCP(=O)([O-])[O-].[Na+].[Na+].[Na+].[Na+]`, the Activity entry in the data set with NHDF and in the data set with HeLa was “Non-Toxic” each time. The inhibitory constant (Ki) in data set [1] was found to be 22000 nM; in data set [2], 6000 nM; in data set [3], 400 nM; in data set [4] it was 450 nM.

With `O=C(CCP(=O)(O)O)N1CC(OC[C@@H](O)P(=O)(O)O)[C@H](n2cnc3c(=O)[nH]cnc32)C1` (stereo not given in full), the results for the Ki in data set [2] and in data set [5] were 2 nM and 6 nM, respectively.

In the case of `Nc1nc2c(ncn2C[C@@H](COCP(=O)([O-])[O-])OC[C@@H](O)P(=O)([O-])[O-])c(=O)[nH]1.[Na+].[Na+].[Na+].[Na+]`, the Activity result in the data set with NHDF and with HeLa was “Non-Toxic” throughout. The Ki in data set [1] was determined as 70 nM; in data set [2], 30 nM; in data set [3], 2 nM; in data set [4], 20 nM; in data set [5], 20 nM.

Turning to `O=c1[nH]cnc2c1ncn2CCCC(O)C(O)P(=O)(O)O` (stereo not given), the Ki in data set [1] is 5000 nM; in data set [2], 3000 nM; in data set [3], 7000 nM; in data set [4], 6000 nM.

Consider `Nc1nc2c(ncn2CCOCC(O)P(=O)(O)O)c(=O)[nH]1` (stereo not given), for which the Ki in data set [1] amounted to 200 nM; in data set [2] it was 300 nM; in data set [4] it was 600 nM.

As for `Nc1nc2c(ncn2C[C@H](COCP(=O)([O-])[O-])OCC(O)P(=O)([O-])[O-])c(=O)[nH]1.[Na+].[Na+].[Na+].[Na+]` (stereo not given in full), the Activity result with NHDF and in the data set with HeLa was “Non-Toxic” each time. Also, the Ki is 400 nM in data set [1]; 100 nM in data set [2]; 40 nM in data set [3]; 40 nM in data set [4]; 300 nM in data set [5].

With `O=c1[nH]cnc2c1ncn2CCC/C=C/P(=O)(O)O`, the Ki in data set [1] is 6000 nM; in data set [2], 13000 nM; in data set [3] it was 1000 nM; in data set [4] it was 12000 nM.

Regarding `O=c1[nH]cnc2c1ncn2C[C@H](COCP(=O)([O-])[O-])OCCCP(=O)([O-])[O-].[Na+].[Na+].[Na+].[Na+]`, the Activity entry in the data set on NHDF and in the data set with HeLa was “Non-Toxic” throughout. The results for the Ki in data set [1], in data set [3] and in data set [4] were 300 nM, 1500 nM and 200 nM, respectively.

For `O=c1[nH]cnc2c1ncn2CCOCC(O)P(=O)(O)O` (stereo not given), the Ki was found to be 2000 nM in data set [1], 700 nM in data set [2], 600 nM in data set [3] and 100 nM in data set [4].

In the case of `Nc1nc2c(ncn2CC(COCP(=O)(O)O)COCP(=O)(O)O)c(=O)[nH]1`, the Ki in data set [2] turned out to be 70 nM; in data set [5] it was 600 nM.

On to `O=c1[nH]cnc2c1ncn2C[C@H](COCP(=O)([O-])[O-])OCC(O)CO.[Na+].[Na+]` (stereo not given in full), for which the Activity entry in the data set on NHDF and in the data set on HeLa was “Non-Toxic” in each case. In addition, the values for the Ki in data set [3] and in data set [4] were 2400 nM and 9000 nM, respectively.

`O=c1[nH]cnc2c1ncn2C[C@H](COCP(=O)([O-])[O-])OCC(O)P(=O)([O-])[O-].[Na+].[Na+].[Na+].[Na+]` (stereo not given in full): the Activity result in the data set on NHDF and in the data set on HeLa was “Non-Toxic” each time. Further, the inhibition constant Ki in data set [1] amounted to 2000 nM; in data set [3], 300 nM; in data set [4], 100 nM; in data set [5], 700 nM.

In the case of `Nc1nc2c(ncn2C[C@@H](COCP(=O)([O-])[O-])OCC(O)CO)c(=O)[nH]1.[Na+].[Na+]` (stereo not given in full), the Activity result in the data set with NHDF and in the data set on HeLa was “Non-Toxic” throughout. Moreover, the Ki in data set [1] was determined as 9000 nM; in data set [2] it was 1000 nM; in data set [3], 300 nM; in data set [4], 2000 nM; in data set [5], 2000 nM.

`Nc1nc2c(ncn2C[C@@H](COCCOP(=O)(O)O)COCP(=O)(O)O)c(=O)[nH]1`: the figures for the Ki in data set [1], in data set [2] and in data set [5] were 6 nM, 70 nM and 200 nM, respectively.

Regarding `Nc1nc2c(ncn2C[C@@H](COCP(=O)([O-])[O-])OCC(O)P(=O)([O-])[O-])c(=O)[nH]1.[Na+].[Na+].[Na+].[Na+]` (stereo not given in full), the Activity result in the data set on NHDF and in the data set on HeLa was “Non-Toxic” each time. Further, the Ki in data set [1] stood at 100 nM; in data set [2] it was 30 nM; in data set [3], 5 nM; in data set [4] it was 20 nM; in data set [5], 10 nM.
